According to PubChem BioAssay (NCI):
Where “and” joins values, the source holds several entries; their conditions need not be identical. Equal entries are not always repeated.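 Growth conditions: 96-well plates. Treatment: test compound, 48 hours, 5 concentrations. Analysis: linear interpolation between bracketing concentrations; unreached endpoints set to highest concentration. At the GI50, growth is halved. TGI denotes the concentration required for complete inhibition of growth.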

Tests used:
Test in all cases: DTP human tumour cell line panel, 48 h
COLO 205 colon = system: COLO 205 colon
SF-295 CNS = system: SF-295 CNS
MOLT-4 leukemia = system: MOLT-4 leukemia
SK-OV-3 ovarian = system: SK-OV-3 ovarian
SNB-19 CNS = system: SNB-19 CNS
NCI-H23 lung = system: NCI-H23 lung
MALME-3M melanoma = system: MALME-3M melanoma
BT-549 breast = system: BT-549 breast
SW-620 colon = system: SW-620 colon
HT29 colon = system: HT29 colon

SMILES | GI50 (COLO 205 colon) | TGI (COLO 205 colon) | GI50 (SF-295 CNS) | TGI (SF-295 CNS) | GI50 (MOLT-4 leukemia) | TGI (MOLT-4 leukemia) | GI50 (SK-OV-3 ovarian) | TGI (SK-OV-3 ovarian) | GI50 (SNB-19 CNS) | TGI (SNB-19 CNS) | GI50 (NCI-H23 lung) | TGI (NCI-H23 lung) | GI50 (MALME-3M melanoma) | TGI (MALME-3M melanoma) | GI50 (BT-549 breast) | TGI (BT-549 breast) | GI50 (SW-620 colon) | TGI (SW-620 colon) | GI50 (HT29 colon) | TGI (HT29 colon)
FC(F)(F)c1cc(Nc2ccc3cc(OCCCN4CCOCC4)ccc3n2)ccc1Cl | 1.74 µM | 3.49 µM | 1.37 µM | 3.17 µM | 2.16 µM | 6.82 µM | 2.21 µM | 4.87 µM | 1.84 µM | 3.79 µM | 1.94 µM | 4.8 µM | 1.67 µM | 4.34 µM | 1.74 µM | 4.07 µM | 1.85 µM | 3.6 µM | 1.59 µM | 3.16 µM
O=C(O)Cc1cccc2c(=O)c3cccc([N+](=O)[O-])c3oc12 |  | > 100 µM |  | > 100 µM |  | > 100 µM |  | > 100 µM |  | > 100 µM |  | > 100 µM |  | > 100 µM |  | > 100 µM |  | > 100 µM |  | > 100 µM
COc1ccc2c(c1OC(C)=O)C1=CC(=O)CCC13CCNC3C2 (centres undefined) |  | > 100 µM |  | > 100 µM |  | > 100 µM |  | > 100 µM |  | > 100 µM |  | > 100 µM |  | > 100 µM |  | > 100 µM |  | > 100 µM |  | > 100 µM
Cc1ccc(S(=O)(=O)N2CCc3ccc(O)c4c3C2Cc2ccc3c(c2-4)OCO3)cc1 (centres undefined) | 5.08 µM | 18.7 µM | 1.38 µM | 12 µM | 2.42 µM | 20.3 µM | 0.731 µM | 8.09 µM | 1.4 µM | > 100 µM | 0.592 µM | 5.25 µM | 0.775 µM | 30.4 µM | 0.822 µM | 12.5 µM | 0.429 µM | > 42.9 µM | 2.79 µM | 7.25 µM
CCN(Cc1ccc(F)cc1)c1ccc(CO)c(OC)c1 | 13.4 µM | 29.7 µM | 23.5 µM | > 84.3 µM | 20.1 µM | 72.4 µM | 15.3 µM | > 94.6 µM | 43.7 µM | > 100 µM | 23.3 µM | > 100 µM | 3.21 µM | 14.3 µM | 7.7 µM | 32.7 µM | 21.1 µM | > 100 µM | 24 µM | > 67.5 µM
COc1cc2c(cc1C)NC(=O)/C2=C\c1c[nH]c2ccccc12 | 16.6 µM | > 100 µM | 6.28 µM | 38 µM | 5.87 µM | 43.5 µM | 17.3 µM | 37.7 µM | 16.4 µM | 41.7 µM | 20.2 µM | 74.6 µM | 15.3 µM | 42.3 µM | 17.4 µM | 36.3 µM | 20.3 µM | 53.3 µM | 5.27 µM | 55.9 µM
CN(C)c1ccc(N=C2C=CC(=O)c3ccccc32)cc1 | 2.06 µM | 4.15 µM | 1.68 µM | 3.66 µM | 2.45 µM | 6.21 µM | 17 µM | > 100 µM | 3.42 µM | 13.9 µM | 2.41 µM | 8.04 µM | 1.6 µM | 3.75 µM | 7.49 µM | 20.5 µM | 1.68 µM | 3.42 µM | 3.62 µM | 12.2 µM
COCCn1cc(-c2csc(-c3c[nH]c4ccc(Br)cc34)n2)c2cccnc21 | 3.22 µM | 34 µM | 2.83 µM | > 100 µM | 3.87 µM | > 100 µM | 13.9 µM | > 100 µM | 12.2 µM | > 100 µM | 3.21 µM | > 100 µM | 3.66 µM | 57.6 µM | 4.8 µM | 27 µM | 3.3 µM | > 100 µM | 3.36 µM | > 100 µM
Cc1ccc(S(=O)(=O)Nc2ccc(-c3cc(-c4cccc(F)c4)c(C#N)c(N)n3)cc2)cc1 | 2.18 µM | 4.48 µM | 3.33 µM | 14.5 µM | 3.2 µM | 30.2 µM | 8.92 µM | 23.3 µM | 3.15 µM | 11.6 µM | 2.48 µM | 7.96 µM | 1.61 µM | 3.25 µM | 1.35 µM | 2.78 µM | 2 µM | 4.4 µM | 3.4 µM | 12.3 µM
CCC[CH2][Pb]([Cl])([CH2]CCC)[CH2]CCC | 0.0194 µM | 0.0358 µM | 0.13 µM | 0.26 µM | 0.0245 µM | 0.731 µM | 0.12 µM | 0.257 µM | 0.188 µM | 0.33 µM | 0.0298 µM | 0.116 µM | 0.00428 µM | 0.0261 µM | 0.031 µM | 0.137 µM | 0.0185 µM | 0.0345 µM | 0.0252 µM | 0.0645 µM
C#Cc1cccc(NC(=O)c2ccc(NC(=O)CCl)cc2)c1 | 23.7 µM | > 82.5 µM | > 82.5 µM | > 82.5 µM | 12.4 µM | 40 µM | > 82.5 µM | > 82.5 µM | 55.6 µM | > 82.5 µM | 14.9 µM | 38.4 µM | 16.4 µM | 53.3 µM | 11.1 µM | 23.9 µM | 15.7 µM | 34 µM | 16 µM | 45.4 µM
COCc1c(-c2ccc(NC(=O)Nc3cc(C(F)(F)F)ccc3F)c(F)c2)c2c(N)ncnn2c1CN1CCOCC1 | 1.05 µM | 2.71 µM | 1.56 µM | 6.54 µM | 2.07 µM | 9.8 µM | 1.61 µM | 6.88 µM | 2.93 µM | > 10 µM | 1.61 µM | 5.18 µM | 2.72 µM | > 10 µM | 0.776 µM | 6.13 µM | 2.58 µM | > 10 µM | 1.62 µM | > 10 µM
O=C(O)CCC(C(=O)O)N1C(=O)C2C3CCC(C3)C2C1=O (centres undefined) |  | > 100 µM |  | > 100 µM |  | > 100 µM |  | > 100 µM |  | > 100 µM |  | > 100 µM |  | > 100 µM |  | > 100 µM |  | > 100 µM |  | > 100 µM
COc1cccc2c1C(=O)c1c(O)c3c(c(O)c1C2=O)CC(O)(C(=O)CO)CC3OC1CC(N)C(O)C(C)O1 (centres undefined) | 9.99 µg/mL and 25.6 µg/mL | 75 µg/mL and > 150 µg/mL | 18.6 µg/mL and 14.3 µg/mL | 75 µg/mL and 116 µg/mL | 1.13 µg/mL and 1.46 µg/mL |  | 22.6 µg/mL and 14.9 µg/mL | 75 µg/mL and 143 µg/mL | 2.04 µg/mL and 54.6 µg/mL | 75 µg/mL and > 150 µg/mL | 11.3 µg/mL and 49.1 µg/mL | 75 µg/mL and > 150 µg/mL | 10 µg/mL and 81.4 µg/mL | 75 µg/mL and > 150 µg/mL | 34.6 µg/mL and 108 µg/mL | 75 µg/mL and > 150 µg/mL | 7.14 µg/mL and 21.2 µg/mL | 75 µg/mL and > 150 µg/mL | 15.7 µg/mL and 49.5 µg/mL | 75 µg/mL and > 150 µg/mL
